In patent US7893074B2, “2, 4-pyrimidinediamines useful in the treatment of neoplastic diseases, inflammatory and immune system disorders” (Novartis AG, priority 2003, dated 2011):
Like-named read-outs stand apart in the source and are kept apart here.

Key:
[1] = target: FAK (Mus musculus, UniProt P34152); experiment: Phos IC50 (phosphorylation); format: cell-based
[2] = target: Focal Adhesion Kinase (FAK) (Homo sapiens, UniProt Q05397); experiment: FAK assay system (Focal Adhesion Kinase inhibition); format: biochemical
Sequence of Focal Adhesion Kinase (FAK) (Q05397 384-706): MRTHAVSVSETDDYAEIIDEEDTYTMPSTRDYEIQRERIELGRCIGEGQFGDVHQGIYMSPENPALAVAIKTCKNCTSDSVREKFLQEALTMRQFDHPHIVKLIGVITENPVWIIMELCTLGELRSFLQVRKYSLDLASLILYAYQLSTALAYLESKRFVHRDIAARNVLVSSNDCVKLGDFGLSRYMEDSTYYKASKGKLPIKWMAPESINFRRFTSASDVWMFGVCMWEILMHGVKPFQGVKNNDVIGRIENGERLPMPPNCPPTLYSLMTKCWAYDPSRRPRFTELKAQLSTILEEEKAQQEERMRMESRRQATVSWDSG

[3] = target: IGF-IR (Homo sapiens, UniProt P08069); experiment: Cellular Capture ELISA of IGF-I induced autophosphorylation of the IGF-IR; format: cell-based; details: read-out: IGF-1R IC50
Sequence of IGF-IR (P08069 31-1367): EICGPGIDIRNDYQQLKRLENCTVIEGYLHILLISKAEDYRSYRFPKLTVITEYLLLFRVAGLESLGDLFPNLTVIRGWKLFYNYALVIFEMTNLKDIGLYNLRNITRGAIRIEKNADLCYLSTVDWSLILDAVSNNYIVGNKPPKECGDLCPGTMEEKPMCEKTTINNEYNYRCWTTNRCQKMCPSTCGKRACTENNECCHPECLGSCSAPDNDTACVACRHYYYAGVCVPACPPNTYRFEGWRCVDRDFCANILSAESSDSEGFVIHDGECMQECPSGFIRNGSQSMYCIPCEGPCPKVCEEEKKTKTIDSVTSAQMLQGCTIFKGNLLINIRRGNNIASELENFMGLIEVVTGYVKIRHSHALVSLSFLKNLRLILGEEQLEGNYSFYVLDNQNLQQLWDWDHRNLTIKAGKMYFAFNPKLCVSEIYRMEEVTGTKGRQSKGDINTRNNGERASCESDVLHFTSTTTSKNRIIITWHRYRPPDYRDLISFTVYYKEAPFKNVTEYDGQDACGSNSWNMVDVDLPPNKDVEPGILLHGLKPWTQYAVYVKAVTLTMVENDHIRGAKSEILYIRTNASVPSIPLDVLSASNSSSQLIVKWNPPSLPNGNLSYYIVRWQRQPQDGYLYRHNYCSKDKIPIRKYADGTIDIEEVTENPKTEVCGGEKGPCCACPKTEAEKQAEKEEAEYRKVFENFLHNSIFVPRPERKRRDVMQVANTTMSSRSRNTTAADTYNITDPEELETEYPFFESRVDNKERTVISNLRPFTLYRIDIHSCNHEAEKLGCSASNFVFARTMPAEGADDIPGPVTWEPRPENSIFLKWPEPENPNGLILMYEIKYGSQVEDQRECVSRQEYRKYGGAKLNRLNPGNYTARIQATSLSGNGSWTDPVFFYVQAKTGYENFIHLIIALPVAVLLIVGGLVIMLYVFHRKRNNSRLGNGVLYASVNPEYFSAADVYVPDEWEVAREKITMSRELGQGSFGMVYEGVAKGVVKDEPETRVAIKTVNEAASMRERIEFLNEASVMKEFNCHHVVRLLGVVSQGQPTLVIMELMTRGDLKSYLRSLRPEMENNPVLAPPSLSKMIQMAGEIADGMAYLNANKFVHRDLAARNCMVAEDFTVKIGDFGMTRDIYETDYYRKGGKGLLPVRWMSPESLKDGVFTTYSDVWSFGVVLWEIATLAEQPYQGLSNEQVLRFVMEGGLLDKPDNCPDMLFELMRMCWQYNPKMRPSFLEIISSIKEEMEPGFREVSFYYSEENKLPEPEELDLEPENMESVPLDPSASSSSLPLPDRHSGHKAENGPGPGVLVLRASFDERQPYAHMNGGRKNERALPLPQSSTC
Procedure: In this assay the activity of the compounds of the invention against Insulin-like growth factor I (IGF-I) induced autophosphorylation of the IGF-IR is determined.

[4] = system: Mouse mammary carcinoma 4T1 cells; experiment: Anchorage-independent tumor cell growth assay; format: cell-based
Procedure: Cells are cultured for 2 h and inhibitors are added at various concentrations in a final concentration of 0.1% DMSO. After 48 h, cell growth is assayed with the cell counting kit-8 (Wako Pure Chemical), which uses a water soluble tetrazolium salt WST8. Twenty μL of the reagent is added into each well and cells are further cultured for 2 h. The optical density is measured at 450 nm.

[5] = system: T Cell; experiment: T Cell Migration; format: cell-based

Sequence of FAK (P34152 2-1052): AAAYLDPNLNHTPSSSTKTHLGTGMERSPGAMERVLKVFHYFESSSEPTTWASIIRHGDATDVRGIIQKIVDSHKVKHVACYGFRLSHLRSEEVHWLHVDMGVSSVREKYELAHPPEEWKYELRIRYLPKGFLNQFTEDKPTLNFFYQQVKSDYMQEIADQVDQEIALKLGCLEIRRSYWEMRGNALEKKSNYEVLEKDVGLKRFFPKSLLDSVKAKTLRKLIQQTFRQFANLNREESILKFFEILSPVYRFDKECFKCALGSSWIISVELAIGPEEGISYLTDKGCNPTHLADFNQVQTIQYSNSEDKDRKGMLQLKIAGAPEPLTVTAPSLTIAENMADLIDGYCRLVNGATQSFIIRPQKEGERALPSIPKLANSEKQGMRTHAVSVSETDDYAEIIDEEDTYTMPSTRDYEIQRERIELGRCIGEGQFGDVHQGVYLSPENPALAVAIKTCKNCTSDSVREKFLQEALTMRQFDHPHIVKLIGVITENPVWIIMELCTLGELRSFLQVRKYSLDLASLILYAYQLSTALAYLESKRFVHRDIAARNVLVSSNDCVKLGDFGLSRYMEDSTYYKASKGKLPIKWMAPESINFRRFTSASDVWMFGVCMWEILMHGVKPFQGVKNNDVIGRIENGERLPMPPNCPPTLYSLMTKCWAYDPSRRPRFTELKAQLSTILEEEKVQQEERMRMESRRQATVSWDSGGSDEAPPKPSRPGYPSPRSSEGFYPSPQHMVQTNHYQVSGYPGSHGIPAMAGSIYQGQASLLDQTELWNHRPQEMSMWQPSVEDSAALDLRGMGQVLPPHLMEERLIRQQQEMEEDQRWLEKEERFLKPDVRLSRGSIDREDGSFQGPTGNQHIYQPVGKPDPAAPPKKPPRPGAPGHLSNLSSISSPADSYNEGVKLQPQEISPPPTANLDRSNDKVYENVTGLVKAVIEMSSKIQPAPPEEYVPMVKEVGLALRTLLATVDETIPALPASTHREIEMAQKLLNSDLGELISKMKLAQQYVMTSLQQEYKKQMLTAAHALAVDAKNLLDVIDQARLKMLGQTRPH

IC50 [1] | IC50 ([2]; read-out: FAK IC50) | IC50 [3] | IC50 ([4]; Mus musculus, 4T1) | IC50 ([5]; T-cell) | IC50 [4] | IC50 [5] | Compound | IC50 ([2]; FAK IC50)
30 nM | 3.2 nM | 130 nM | 400 nM | 290 nM | – | – | COc1cc(N2CCOCC2)ccc1Nc1ncc(Cl)c(Nc2ccccc2S(=O)(=O)NC(C)C)n1 [Example 19-8] | –
300 nM | 10 nM | 700 nM | 180 nM | 250 nM | – | – | CNS(=O)(=O)c1ccccc1Nc1nc(Nc2ccc(N3CCOCC3)cc2OC)ncc1Cl [Example 20-1] | –
50 nM | 4.9 nM | 1160 nM | 430 nM | 290 nM | – | – | CCCS(=O)(=O)c1ccccc1Nc1nc(Nc2ccc(N3CCC(O)CC3)cc2OC)ncc1Cl [Example 26-4] | –
30 nM | 1.9 nM | 390 nM | 120 nM | 90 nM | – | – | CCCS(=O)(=O)c1ccccc1Nc1nc(Nc2ccc(N3CCN(C(C)=O)CC3)cc2OC)ncc1Cl [Example 26-2] | –
2000 nM | 190 nM | – | 1100 nM | 1000 nM | – | – | COc1cc(N2CCOCC2)ccc1Nc1ncc(Cl)c(Nc2ccccc2C(=O)NC(C)C)n1 [Example 14-2] | –
600 nM | 3.4 nM | 530 nM | 200 nM | 630 nM | – | – | CCC(CC)NS(=O)(=O)c1ccccc1Nc1nc(Nc2ccc(OC3CCN(C)CC3)cc2OC)ncc1Cl [Example 23-1] | –
200 nM | < 1 nM | 1410 nM | 300 nM | 290 nM | – | – | CNC1CCN(c2ccc(Nc3ncc(Cl)c(Nc4ccccc4S(=O)(=O)NC(C)C)n3)c(OC)c2)C1 (stereo not drawn) [Example 19-1] | –
120 nM | 9 nM | 520 nM | 170 nM | 750 nM | – | – | CNS(=O)(=O)c1ccccc1Nc1nc(Nc2ccc(N3CCN(C(C)=O)CC3)cc2OC)ncc1Cl [Example 20-2] | –
3000 nM | 23 nM | – | 400 nM | 300 nM | – | – | CCNC(=O)c1ccccc1Nc1nc(Nc2ccc(OC3CCN(C)CC3)cc2OC)ncc1Cl [Example 9-6] | –
360 nM | 5 nM | – | 140 nM | 49000 nM | – | – | CNS(=O)(=O)c1ccccc1Nc1nc(Nc2ccc(N3CCN(C)CC3)cc2OC)ncc1Cl [Example 20-6] | –
300 nM | 2.4 nM | – | 420 nM | 500 nM | – | – | COc1cc(N2CCC[C@H](C(N)=O)C2)ccc1Nc1ncc(Cl)c(Nc2ccccc2S(=O)(=O)C(C)C)n1 [Example 28-27] | –
300 nM | 17 nM | – | 100 nM | 260 nM | – | – | CCCS(=O)(=O)c1ccccc1Nc1nc(Nc2cc(N3CCOCC3)ccc2OC)ncc1Cl [Example 26-17] | –
400 nM | 5.2 nM | – | 520 nM | 1000 nM | – | – | COc1cc(N2CCC[C@@H](C(N)=O)C2)ccc1Nc1ncc(Cl)c(Nc2ccccc2S(=O)(=O)C(C)C)n1 [Example 28-28] | –
360 nM | 22 nM | – | 1000 nM | 600 nM | – | – | CCNC(=O)c1ccccc1Nc1nc(Nc2ccc(N3CCOCC3)cc2OC)ncc1Cl [Example 9-1] | –
400 nM | 4.4 nM | – | 780 nM | 500 nM | – | – | CCCS(=O)(=O)c1ccccc1Nc1nc(Nc2ccc(N3CCN(C(C)=O)C(C)(C)C3)cc2OC)ncc1Cl [Example 26-11] | –
200 nM | 19 nM | – | 1470 nM | 280 nM | – | – | COc1cc(N2CCOCC2)ccc1Nc1ncc(Cl)c(Nc2ccccc2C(=O)N(C)C)n1 [Example 14-1] | –
90 nM | 2.5 nM | – | 400 nM | 220 nM | – | – | COc1cc(N2CCOCC2)ccc1Nc1ncc(Cl)c(Nc2cccc3c2C(=O)N(C)C3)n1 [Example 12-1, 7-[5-Chloro-2-(2-methoxy-4-morpholin-4-yl-phenylamino)-pyrimidin-4-ylamino]-2-methyl-2,3-dihydro-isoindol-1-one] | –
110 nM | 11 nM | – | 1000 nM | 600 nM | – | – | COc1cc(N2CCC(O)CC2)ccc1Nc1ncc(Cl)c(Nc2ccccc2S(=O)(=O)C(C)C)n1 [Example 28-16] | –
200 nM | 1.8 nM | – | – | – | 670 nM | 70 nM | COc1cc(N2CCN(C)CC2)ccc1Nc1ncc(Cl)c(Nc2ccccc2S(=O)(=O)NC(C)C)n1 [Example 19-5] | –
100 nM | 7.8 nM | – | 550 nM | 290 nM | – | – | COc1cc(N2CCC(N3CCOCC3)CC2)ccc1Nc1ncc(Cl)c(Nc2ccccc2S(=O)(=O)C(C)C)n1 [Example 28-13] | –
500 nM | 1 nM | – | – | – | 480 nM | 900 nM | CCCS(=O)(=O)c1ccccc1Nc1nc(Nc2ccc(N3CCC(N(C)C)C3)cc2OC)ncc1Cl (stereo not drawn) [Example 26-24] | –

Further lines, the molecule ahead of its results:

Compound | IC50 [1] | IC50 ([2]; read-out: FAK IC50) | IC50 [3] | IC50 ([4]; Mus musculus, 4T1) | IC50 ([5]; T-cell) | IC50 [4] | IC50 [5] | IC50 ([2]; FAK IC50)
CNS(=O)(=O)c1ccccc1Nc1nc(Nc2cc(N3CCOCC3)ccc2OC)ncc1Br [Example 3-32] | 180 nM | 14 nM | 120 nM | 490 nM | 280 nM | – | – | –
CNS(=O)(=O)c1ccccc1Nc1nc(Nc2cc(OCCN3CCOCC3)ccc2OC)ncc1Br [Example 3-35] | 20 nM | 13 nM | 3550 nM | 170 nM | 800 nM | – | – | –
COc1cc(N2CCC(N(C)C)C2)ccc1Nc1ncc(Cl)c(Nc2ccccc2S(=O)(=O)NC(C)C)n1 (stereo not drawn) [Example 19-9] | – | – | 480 nM | 390 nM | 300 nM | – | – | 1.3 nM
CNS(=O)(=O)c1ccccc1Nc1nc(Nc2ccc(N3CCN(C)CC3)cc2OC)ncc1Br [Example 3-39] | 20 nM | 2 nM | 90 nM | 30 nM | 1000 nM | – | – | –
CNS(=O)(=O)c1ccccc1Nc1nc(Nc2cc(OC3CCN(C)CC3)ccc2OC)ncc1Br [Example 3-76] | 290 nM | 15 nM | – | 1300 nM | 700 nM | – | – | –
CNS(=O)(=O)c1ccccc1Nc1nc(Nc2ccc(OC3CCN(C)CC3)cc2OC)ncc1Br [Example 3-33] | 30 nM | 2.9 nM | 130 nM | 50 nM | 90 nM | – | – | –
CNC(=O)c1ccccc1Nc1nc(Nc2ccc(N3CCOCC3)cc2OC)ncc1Cl [Example 7A, 2-[5-Chloro-2-(2-methoxy-4-morpholin-4-yl-phenylamino)-pyrimidin-4-ylamino]-N-methyl-benzamide] | 210 nM | – | – | 470 nM | 40 nM | – | – | –
CNS(=O)(=O)c1ccccc1Nc1nc(Nc2cc(N3CCC(N4CCCCC4)CC3)ccc2OC)ncc1Br [Example 3-69] | 200 nM | 4 nM | – | 110 nM | 580 nM | – | – | –
CNS(=O)(=O)c1ccccc1Nc1nc(Nc2ccc(N3CCN(C(C)=O)CC3)cc2OC)ncc1Br [Example 3-46] | 100 nM | 4 nM | – | 180 nM | 300 nM | – | – | –
CNC(=O)c1ccccc1Nc1nc(Nc2cc(N3CCOCC3)ccc2OC)ncc1Cl [Example 7-6] | 800 nM | 17 nM | – | 1090 nM | 250 nM | – | – | –
CNS(=O)(=O)c1ccccc1Nc1nc(Nc2cc(N(C)C)ccc2OC)ncc1Br [Example 3-64] | 130 nM | 5 nM | – | 700 nM | 210 nM | – | – | –
